According to patent US20180200331A1, “BST-2 AS A THERAPEUTIC TARGET AND DIAGNOSTIC MARKER FOR BREAST CANCER GROWTH AND METASTASIS” (University of Iowa Research Foundation, priority 2015, published 2018):
Read-outs that look alike come from different tables or passages of the source. No end group written: not given here.

What was measured:
BST-2 [1] = test: 5-azacytidine treatment, BST-2 RT-qPCR and flow cytometry; type: cell-based, human; details: 1 uM for 5 days
Protocol: Cell lines of interest were plated at 150,000 cells/well in a 6-well plate and treated with DMSO (vehicle) or 1 μM of 5-azacytidine (5-azaC, Sigma Aldrich) for 5 days. Cells were harvested using 0.25% trypsin-EDTA (Mediatech, Corning, N.Y., USA). Post-incubation, 8 ml of 10% FBS-containing RPMI media (Life Technologies) was added and cells were centrifuged. Media was aspirated and individual cells were resuspended in 2% FBS-containing PBS (Life Technologies). Cell suspension was passed through a […] cell strainer (Falcon). Cells were incubated at 4° C. for 1 hour with APC-conjugated anti-BST-2 primary antibodies or appropriate IgG (Ebioscience) and washed with 1×PBS. After washing, cells were incubated with the fluorescent intercalator-7-aminoactinomycin D (7-AAD) (BioLegend) at 4° C. for 30 minutes to exclude dead cells. Stained cells were quantified using a FACS Calibur flow cytometer (BD). 10,000 events were collected per sample and FACS data were analyzed and plotted using Flowjo software (TreeStar).
(§1) Human normal and breast cancer cell lines were plated at 150,000 cells/well in a 6-well plate and treated with DMSO (vehicle) or 1 μM of 5-azacytidine (5-azaC, Sigma Aldrich) for 5 days. Cells were lifted using Versene (a gentle cell dissociator, Life Technologies), washed with PBS, pelleted and stored at −20° C. until required for analysis. RNA was isolated from frozen cells using the RNeasy mini kit (Qiagen) according to manufacturer's instructions. Equivalent amounts of RNA were treated with DNase (Qiagen). A portion of RNA was subjected to cDNA synthesis (ABI) as previously described. RNA concentration and purity were assessed at 260/280 nm using the spectrophotometer. Using synthesized cDNA, sequence-specific primers were used to amplify BST-2 [4] and GAPDH [13,48]. Claudin-6 was amplified with (F: […], R: […]) primer pair. RT-qPCR was carried out with an ABI 7500 FAST thermal cycler in triplicates as previously described.

Claudin-6 (CLDN6) [2] = test: 5-azacytidine treatment, CLDN6 RT-qPCR; type: cell-based, human; details: HMLE, MCF-7, SK-BR-3, MDA-MB-231 cells, 1 uM for 5 days
Protocol: as §1

BST-2 [3] = details: cited from earlier work
Claudin-6 (CLDN6) [4] = details: all cell types, GEO datasets; cited from earlier work
Half-life of B49nc = test: Half-life of B49nc
Excerpt: We generated a truncated form of B49 called “B49nc” having the sequence […] (SEQ ID NO:14).

MDA-MB-231 cells = test: Cancer cell to cancer cell adhesion assay on MDA-MB-231 shControl monolayers; type: cell-based, human; details: monolayers blocked with 200 ng/well for 4 hours; adhesion 4 hours
Protocol: FIG. 46. […] Moreover, MDA-mb-231 SHcONTROL CELLS WERE ADDED TO mda-mb-231 ShBST-2 monolayers (on shBST-2). (Each data point corresponds to six different wells analyzed. Error bars correspond to SEM. Significance was taken at P<0.0005*** or P<0.0001****.
MDA-MB-231 cells expressing shBST-2 or shControl were plated to confluency in a 96-well plate. MDA-MB-231 shControl cells were blocked with water (Vehicle), 200 ng/well of recombinant BST-2 (Sino Biological Inc.), 200 ng/well of B49 peptide or 200 ng of B49nc peptide for 4 hours. Wells were washed twice with PBS and then PKH67 labeled MDA-MB-231 shControl cells were added to wells at 25,000 cells/well. Cells were allowed to adhere for 4 hours at 37° C. Non-adhered cells were washed off with PBS and plates were read at 485 nm/535 nm (excitation/emission) wavelengths using a Tecan Infinite M200 Pro plate reader (Tecan). Values are represented as relative fluorescence intensity (RFI).

BST-2 [5] = test: shRNA knockdown of BST-2 in E0771 and 4T1 cells; type: cell-based, mouse; details: E0771 and 4T1 cells stably transduced
Excerpt: E0771 and 4T1 cells were stably transduced with a construct expressing LV-CMV-firefly luciferase or an empty vector construct using lipofectamine following the manufacturer's instructions (Life Technologies, Carlsbad, Calif., USA). Stable transfectants were then transduced with lentiviral particles carrying BST-2-targeting sh137: CCGGC […] (SEQ ID NO:3); sh413: […] TTCTCAAGCTTTTTG (SEQ ID NO:4); or a non-targeting shControl: […] (SEQ ID NO:5) using a previously described protocol. Stable cells were generated by selection with the appropriate drug. The short hairpin RNA (shRNA) constructs were purchased from Sigma-Aldrich (St Louis, Mo., USA) (SHCLND-NM_198095) and lentiviral particles were generated at the Gene Transfer Vector Core at the University of Iowa.
Cell monolayers were washed with PBS and treated with Versene (Life Technologies). […] Stained cells were quantified using a FACSCalibur flow cytometer (BD Biosciences, San Jose, Calif., USA). […] Fluorescence-activated cell sorting (FACS) data were analyzed by Flowjo software (TreeStar, Ashland, Oreg., USA). […]
Western blots were performed as previously described. […] Band detection and quantification were carried out with the Odyssey Infrared Imaging System (LI-COR Biosciences, Lincoln, Nebr., USA).

mammary cancer cells [6] = test: Transformation assay (soft agar colony formation); type: cell-based, mouse; details: compared to shControl
Protocol: Agar was mixed in Roswell Park Memorial Institute medium (RPMI) with 20% FBS. A total of 500 μl of 0.5% agar was added to 24-well plate and allowed to solidify. Cells were plated at 1,250 cells/well in 500 μl of 0.35% agarose. Some 250 μl of the appropriate growth medium was added on top of the agarose layer. Growth medium was replaced twice a week. Colonies were stained with crystal violet and imaged. Colonies from five different fields were counted and averaged.

mammary cancer cells [7] = test: Scratch assay; type: cell-based, mouse; details: 6 h and 24 h
Protocol: Confluent monolayers of cancer cells plated in 12-well plates were scratched using a pipette tip. Fresh medium was added to the wells. Cells were allowed to migrate for 0, 6 or 24 hours before fixation (4% paraformaldehyde (PFA) for 45 minutes). Fixed cells were washed (1×PBS) and imaged with a Nikon Eclipse Ti microscope adjusted with a Nikon digital sight camera (Nikon, Tokyo, Japan). Images were processed and migrated cells counted using Image J software.

E0771 cells [8] = test: Boyden chamber assay; type: cell-based, mouse; details: 20 hours
Protocol: The apical chamber of 24-well cell culture inserts (Merck Millipore, Billerica, Mass., USA) were seeded with previously starved sh137, sh413 or shControl transduced E0771 cells (150,000) in serum-free medium. Culture medium containing 30% FBS was added to the basal chamber of the unit and cells were allowed to migrate through the membranous barrier for 20 hours at 37° C. Non-migrated cells were washed off, migrated cells were fixed with 4% PFA for 5 minutes, washed twice with 1×PBS, permeabilized with 100% methanol for 25 minutes, labeled with Giemsa stain (for 15 minutes at room temperature) and imaged using a Nikon Eclipse Ti microscope adjusted with an X-cite series 120 LED fluorescence microscope light source and a Nikon digital sight camera. Images were processed using Image J software. Cells from five different fields were counted and averaged.

E0771 or 4T1 cells = test: Cell invasion assay (Matrigel); type: cell-based, mouse; details: 24 h
Protocol: The apical chamber of 24-well cell culture inserts (Merck Millipore) were coated with 3 mg/ml of Matrigel (100 μl) (Sigma-Aldrich) and allowed to solidify for 5 hours. A total of 100,000 sh413- or shControl-transduced E0771 or 4T1 cells in serum-free medium were plated on top of the Matrigel layer. Culture medium containing 10% FBS and 5 μg/ml fibronectin (adhesive substrate) (Sigma-Aldrich) was added to the basal chamber of the unit (600 μl) and cells were allowed to invade through the membranous barrier for 24 hours at 37° C. Noninvasive cells were washed off; invasive cells were fixed with 4% PFA, permeabilized with 100% methanol, labeled with Giemsa stain and imaged as described in the previous paragraph. Images were processed using Image J software. Cells from five different fields were counted and averaged.

E0771 and 4T1 cells = test: BrdU assay; type: cell-based, mouse
Protocol: A total of 5,000 cells were plated in 96-well plates for 24 hours. Bromodeoxyuridine or 5-bromo-2′-deoxyuridine (BrdU) (Calbiochem, Billerica, Mass., USA) assay was carried out according to the manufacturer's instructions. Absorbance at 450 nm was read using a Tecan Infinite plate reader. In parallel, 150,000 cells were plated in 24-well plates for 24 hours. Cells were incubated with BrdU label (1:2000) for 20 hours, treated with a fixative/denaturing solution (30 minutes) and incubated with an anti-BrdU antibody (1:1000) and rat anti-mouse BST-2 antibody (1:200, eBioscience) for 1 hour at room temperature. Cells were washed and incubated with Alexa Fluor 594 anti-rat (Invitrogen, Waltham, Mass., USA) and Alexa Fluor 488 anti-mouse (Invitrogen) secondary antibodies for 30 minutes at room temperature. Cells were stained with 4′,6-diamidino-2-phenylindole (DAPI)-containing Vectashield (Vector Laboratories, Burlingame, Calif., USA) and imaged using a Zeiss 710 confocal microscope (Carl Zeiss, Oberkochen, Germany). Images were processed using Image J software. BrdU label, fixative/denaturing solution, and anti-BrdU antibody were from BrdU (Calbiochem) assay.

E0771 cells [9] = test: MTT assay, E0771; type: cell-based, mouse
Protocol: A total of 5,000 cells stably expressing sh137, sh413, or shControl were plated in 96-well plates. Cells were then incubated with 5 mg/ml MTT reagent for 3.5 hours followed by addition of MTT solvent (0.1% NP-40 and 4 mM HCl in isopropanol) and rocking for 15 minutes. Absorbance at 590 nm was read using a Tecan Infinite M200 Pro plate reader.

Nc1ncn([C@@H]2O[C@H](CO)[C@@H](O)[C@H]2O)c(=O)n1 [5-AzaC, 5-azacytidine]
BST-2 levels (RNA and protein) (BST-2 [1]; HMLE cells): significant increase | BST-2 levels (RNA and protein) (BST-2 [1]; MCF-7 cells): significant increase | BST-2 mRNA and protein levels (BST-2 [1]; MDA-MB-231 cells): unchanged | BST-2 mRNA and protein levels (BST-2 [1]; SK-BR-3 cells): unchanged | CLDN6 mRNA level (Claudin-6 (CLDN6) [2]): induced in all cell types

Nc1ncn([C@H]2C[C@H](O)[C@@H](CO)O2)c(=O)n1 [DAC, 2′-deoxy-5-azacytidine]
BST-2 mRNA expression (BST-2 [3]; HB2 cells, GEO GSE28976): increased BST-2 mRNA expression | BST-2 mRNA expression (BST-2 [3]; MCF-7 cells, GEO GSE36683): increased BST-2 mRNA expression | BST-2 levels (BST-2 [3]; MDA-MB-231 cells, GEO GSE28976): did not show any increase | BST-2 levels (BST-2 [3]; SK-BR-3 cells, GEO GSE28976): did not show any increase | CLDN6 mRNA levels (Claudin-6 (CLDN6) [4]): induced in all cell types

TIKANSEACRDGLRAVMECRNVTHLLQQELTEAQKGFQDVEAQAATCNHTVMA (cysteines drawn unpaired) [B49nc]
half-life (Half-life of B49nc): ~20 h | cancer cell adhesion (relative fluorescence intensity) (MDA-MB-231 cells): inhibits cancer cell adhesion

sh137: BST-2-targeting shRNA (SEQ ID NO:3), delivered by lentiviral particles (CCGGCGCGATCTTGGTGGTCCTGTTCTCGAGAACAGGACCACCAAGATCGCGTTTTTG)
BST-2 expression (BST-2 [5]): reduced BST-2 expression | colony numbers in soft agar (mammary cancer cells [6]): reduced colony numbers | migration into scratch wound (mammary cancer cells [7]): showed some migration | rate of cell migration (Boyden chamber) (E0771 cells [8]): significantly reduced rate of cell migration | invasion through Matrigel (E0771 or 4T1 cells): reduced the ability of the cells to invade the basement membrane | cell proliferation (BrdU incorporation) (E0771 and 4T1 cells): no effect on cell proliferation | cell viability (MTT) (E0771 cells [9]): equally viable
